These compounds were tested against T1, Human MAT2A (Homo sapiens, UniProt P31153) (assay: Phosphate Sensor Fluorescence Assay (Biologic Example B)). Settings: MAT2A inhibition, Biological Example B procedure (Compounds 1.029-1.070); 5.8 nM MAT2A, 500 uM L-methionine, 500 uM ATP.
T1 construct: Human MAT2A: Cepter, amino acids 1-395 Clone ID 334, lot 00023-148; purchased Cepter clone ID 334, lot 00023-148
T1 sequence (P31153 whole entry, the tested form may be a part): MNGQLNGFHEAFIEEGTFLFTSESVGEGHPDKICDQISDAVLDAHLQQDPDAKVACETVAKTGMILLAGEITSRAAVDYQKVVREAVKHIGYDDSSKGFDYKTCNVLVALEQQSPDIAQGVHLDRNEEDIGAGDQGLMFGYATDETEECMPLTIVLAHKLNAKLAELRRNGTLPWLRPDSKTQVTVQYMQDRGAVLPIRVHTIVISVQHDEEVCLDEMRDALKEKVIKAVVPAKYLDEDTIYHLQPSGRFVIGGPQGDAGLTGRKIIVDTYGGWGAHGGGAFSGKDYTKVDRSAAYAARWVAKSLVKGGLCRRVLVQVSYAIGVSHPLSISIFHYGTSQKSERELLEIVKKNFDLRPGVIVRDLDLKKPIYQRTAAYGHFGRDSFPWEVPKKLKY
Type: biochemical
Protocol: The ability of the compound of present disclosure to inhibit MAT2A enzyme was determined using a Phosphate Sensor Fluorescence Assay described below.
Biologic Example B. Phosphate Sensor Fluorescence Assay
MAT2A enzyme is incubated with a test compound in DMSO or DMSO and its substrates (L-methionine and ATP) in a microtiter plate. The enzymatic reaction is stopped by the addition of Working Phosphate Sensor Mixture. The plate is analyzed for fluorescence at 450 nm. The high control (DMSO with enzyme and its substrates) gives high fluorescence which represents no inhibition of enzymatic activity while the low control (DMSO with MAT2A substrates and no enzyme) gives low fluorescence which represents full inhibition of enzymatic activity.
• Human MAT2A: Cepter, amino acids 1-395 Clone ID 334, lot 00023-148 • Tris, pH 7.5: Invitrogen cat #15567-027 • KCl: Ambion cat #AM9640G • MgCl2: Ambion cat #AM9530G • Brij-35: Sigma cat B4184-10ML • DTT: Goldbio cat #DTT100 • BGG: Sigma cat #G5009-25G • PNP: Novus Biologicals cat #NBP1-50872 • 7-MEG: Cayman Chemical cat #15988 • L-Methionine: JTBaker P/N 2085-05 • ATP: Promega P/N V915B • Phosphate Sensor: Invitrogen cat #PV4407 • EDTA: Life Tech cat #15575-038 • Assay plate: 384-well black polypropylene plate: Corning P/N 3573
• Assay Buffer: 50 mM Tris, pH 7.5/50 mM KCl/10 mM MgCl2/0.01% Brij-35/1 mM DTT/0.01% BGG/40 nM PNP/6 uM 7-MEG • MAT2A: 5.8 nM MAT2A (1-395), Cepter, clone ID 334, lot 00023-148 before the addition of Working Phosphate Sensor Mixture • L-methionine: 500 uM before the addition of Working Phosphate Sensor Mixture • ATP: 500 uM before the addition of Working Phosphate Sensor Mixture
For the assay, a mixture of 1 mM L-methionine/1 mM ATP (2× final pre-stopped concentration) in assay buffer; MAT2A (2× final pre-stopped concentration) in Assay Buffer and Working Phosphate Sensor Mixture (1.5 uM Phosphate Sensor/30 mM EDTA in Assay Buffer, which is 3× final concentrations) were prepared. Test compounds or DMSO were added to the appropriate well using a Beckman Coulter Echo 550 acoustic liquid handler. 10 μL/well of Assay Buffer was added to the wells corresponding to the negative control and 10 μL/well of MAT2A was added to all the wells except for those corresponding to the negative control. After incubating the plate at room temperature for 15 minutes, 10 μL/well of the 1 mM L-methionine/1 mM ATP mixture was added to all wells. The plate was centrifuged at 1000 rpm for 1 minute and then incubated at room temperature for 1 hour. 10 μL of the Working Phosphate Sensor Mixture was added to all wells and the plate was centrifuged at 1000 rpm for 1 minute. The plate was read for fluorescence at 450 nm after exciting at 430 nm on a Tecan Spark microplate reader.
Percent inhibition was calculated in Chemical and Biological Information System (CBIS), (ChemInnovation Software Inc.). Curves were fitted by CBIS as % inhibition vs. log [compound concentration] using a 4-parameter inhibition model.
Fit=(A+((B−A)/(1+((C/x)^D))))
Compounds 1.001-1.028 were tested using the procedure described in Bioogical Example A, described above. Compounds 1.029-1.070 were tested using the procedure described in Biological Example B, described above.
Work on `CC(c1c[nH]cn1)n1c(=O)nc(N2CCC2)c2ccc(Br)cc21` (centres unmarked) [1.032, 1-(1-(1H-imidazol-4-yl)ethyl)-4-(azetidin-1-yl)-7-bromoquinazolin-2(1H)-one] yielded an IC50 of 10 to 200 nM.
`CC(C)N(C)c1nc(=O)n([C@H](C)c2cnc[nH]2)c2cc(C(F)(F)F)ccc12` (single isomer, unassigned) [1.038] gave an IC50 of 10 to 200 nM.
In the case of `CN(C)c1nc(=O)n(Cc2cnc[nH]2)c2cc(C(F)(F)F)ccc12` [1.030, 1-((1H-Imidazol-5-yl)methyl)-4-(dimethylamino)-7-(trifluoromethyl)quinazolin-2(1H)-one], the IC50 is reported as 10 to 200 nM.
Compound `CN(C)c1nc(=O)n([C@@H](c2c[nH]cn2)C(F)F)c2nc(C(F)(F)F)ccc12` (single isomer, unassigned) [1.063] has an IC50 of 1000 to 10000 nM.
Work on `CN(C)c1nc(=O)n(Cc2cncn2C)c2cc(C(F)(F)F)ccc12` [1.055, 4-(dimethylamino)-1-((1-methyl-1H-imidazol-5-yl)methyl)-7-(trifluoromethyl)quinazolin-2(1H)-one] yielded an IC50 of 200 to 500 nM.
`CN(C)c1nc(=O)n(C(c2cnc[nH]2)C2CC2)c2cc(C(F)(F)F)ccc12` (centres unmarked) [1.045, 1-(Cyclopropyl(1H-imidazol-5-yl)methyl)-4-(dimethylamino)-7-(trifluoromethyl)quinazolin-2(1H)-one] gave an IC50 of 200 to 500 nM.
In the case of `C[C@@H](c1cc[nH]n1)n1c(=O)nc(N)c2ccc(Cl)cc21` (single isomer, unassigned) [1.070], the IC50 is reported as 200 to 500 nM.
`C[C@@H](c1cnc[nH]1)n1c(=O)nc(N(C)C)c2ccc(Cl)cc21` (single isomer, unassigned) [1.048] gave an IC50 of 10 to 200 nM.
Work on `CC(c1cc[nH]n1)n1c(=O)nc(N(C)C)c2ccc(Cl)cc21` (racemic) [1.062, 1-(1-(1H-pyrazol-3-yl)ethyl)-7-chloro-4-(dimethylamino)quinazolin-2(1H)-one] yielded an IC50 of under 10 nM.
Work on `CC(c1c[nH]cn1)n1c(=O)nc(N(C)C)c2ccc(Br)cc21` (centres unmarked) [1.031, 1-(1-(1H-imidazol-4-yl)ethyl)-7-bromo-4-(dimethylamino)quinazolin-2(1H)-one] yielded an IC50 of 10 to 200 nM.
Work on `C[C@@H](c1cnc[nH]1)n1c(=O)nc(N(C)C)c2ccc(Br)cc21` (single isomer, unassigned) [1.044] yielded an IC50 of under 10 nM.
For `CC[C@H](c1cnc[nH]1)n1c(=O)nc(N(C)C)c2ccc(C(F)(F)F)cc21` (single isomer, unassigned) [1.041], the IC50 was 10 to 200 nM.
With `CCN(C)c1nc(=O)n([C@@H](C)c2cnc[nH]2)c2cc(C(F)(F)F)ccc12` (single isomer, unassigned) [1.035] the IC50 was 10 to 200 nM.
In the case of `CN(C)c1nc(=O)n([C@H](c2c[nH]cn2)C(F)F)c2nc(C(F)(F)F)ccc12` (single isomer, unassigned) [1.064], the IC50 is reported as 200 to 500 nM.
`CNc1nc(=O)n(Cc2cocn2)c2cc(C(F)(F)F)ccc12` [1.066, 4-(Methylamino)-1-(oxazol-4-ylmethyl)-7-(trifluoromethyl)quinazolin-2(1H)-one] showed an IC50 of 10 to 200 nM.
`CN(C)c1nc(=O)n(Cc2cnc[nH]2)c2cc(Cl)ccc12` [1.034, 1-((1H-imidazol-5-yl)methyl)-7-chloro-4-(dimethylamino)quinazolin-2(1H)-one] showed an IC50 of 200 to 500 nM.
With `CN(C)c1nc(=O)n(Cc2ccncc2)c2nc(C(F)(F)F)ccc12` [1.054, 4-(Dimethylamino)-1-(pyridin-4-ylmethyl)-7-(trifluoromethyl)pyrido[2,3-d]pyrimidin-2(1H)one] the IC50 was 1000 to 10000 nM.
Work on `CN(C)c1nc(=O)n(Cc2cccnc2)c2nc(C(F)(F)F)ccc12` [1.053, 4-(Dimethylamino)-1-(pyridin-3-ylmethyl)-7-(trifluoromethyl)pyrido[2,3-d]pyrimidin-2(1H)one] yielded an IC50 of 1000 to 10000 nM.
Work on `C[C@H](c1cnc[nH]1)n1c(=O)nc(N2CCC2)c2ccc(Br)cc21` (single isomer, unassigned) [1.039] yielded an IC50 of 200 to 500 nM.
With `CN(C)c1nc(=O)n(Cc2ccn[nH]2)c2cc(Cl)ccc12` [1.056, 1-((1H-pyrazol-5-yl)methyl)-7-chloro-4-(dimethylamino)quinazolin-2(1H)-one] the IC50 was 10 to 200 nM.
`CCC(c1cnc[nH]1)n1c(=O)nc(N(C)C)c2ccc(C(F)(F)F)cc21` (centres unmarked) [1.033, 1-(1-(1H-imidazol-5-yl)propyl)-4-(dimethylamino)-7-(trifluoromethyl)quinazolin-2(1H)-one] gave an IC50 of 200 to 500 nM.
Work on `C[C@H](c1cc[nH]n1)n1c(=O)nc(N)c2ccc(Cl)cc21` (single isomer, unassigned) [1.069] yielded an IC50 of 10 to 200 nM.
With `CN(C)c1nc(=O)n(CC2CNC(=O)C2)c2cc(C(F)(F)F)ccc12` (centres unmarked) [1.057, 4-(Dimethylamino)-1-((5-oxopyrrolidin-3-yl)methyl)-7-(trifluoromethyl)quinazolin-2(1H)-one] the IC50 was 500 to 1000 nM.
For `C[C@H](c1nc[nH]n1)n1c(=O)nc(N(C)C)c2ccc(Cl)cc21` (single isomer, unassigned) [1.060], the IC50 was 10 to 200 nM.
`CNc1nc(=O)n(Cc2cscn2)c2cc(C(F)(F)F)ccc12` [1.067, 4-(Methylamino)-1-(thiazol-4-ylmethyl)-7-(trifluoromethyl)quinazolin-2(1H)-one] was tested, and the IC50 was 1000 to 10000 nM.
In the case of `CC(C)N(C)c1nc(=O)n([C@@H](C)c2cnc[nH]2)c2cc(C(F)(F)F)ccc12` (single isomer, unassigned) [1.037], the IC50 is reported as 10 to 200 nM.
With `C[C@H](c1cc[nH]n1)n1c(=O)nc(N(C)C)c2ccc(Cl)cc21` (single isomer, unassigned) [1.059] the IC50 was under 10 nM.
In the case of `C[C@H](c1cnc[nH]1)n1c(=O)nc(N(C)C)c2ccc(Cl)cc21` (single isomer, unassigned) [1.047], the IC50 is reported as under 10 nM.
For `CN(C)c1nc(=O)n(Cc2ccccn2)c2nc(C(F)(F)F)ccc12` [1.052, 4-(Dimethylamino)-1-(pyridin-2-ylmethyl)-7-(trifluoromethyl)pyrido[2,3-d]pyrimidin-2(1H)-one], the IC50 was 10 to 200 nM.
Compound `C[C@@H](c1cnc[nH]1)n1c(=O)nc(N2CCC2)c2ccc(Br)cc21` (single isomer, unassigned) [1.040] has an IC50 of 10 to 200 nM.
Work on `CC(c1cnc[nH]1)n1c(=O)nc(N(C)C)c2ccc(C(F)(F)F)nc21` (centres unmarked) [1.046, 1-(1-(1H-Imidazol-5-yl)ethyl)-4-(dimethylamino)-7-(trifluoromethyl)pyrido[2,3-d]pyrimidin-2(1H)-one] yielded an IC50 of 10 to 200 nM.
With `CN(C)c1nc(=O)n(Cc2cn(C)cn2)c2cc(C(F)(F)F)ccc12` [1.058, 4-(Dimethylamino)-1-((1-methyl-1H-imidazol-4-yl)methyl)-7-(trifluoromethyl)quinazolin-2(1H)-one] the IC50 was 1000 to 10000 nM.
`CC[C@@H](c1cnc[nH]1)n1c(=O)nc(N(C)C)c2ccc(C(F)(F)F)cc21` (single isomer, unassigned) [1.042] gave an IC50 of 200 to 500 nM.
For `Cc1nc[nH]c1Cn1c(=O)nc(N(C)C)c2ccc(C(F)(F)F)cc21` [1.050, 4-(Dimethylamino)-1-((4-methyl-1H-imidazol-5-yl)methyl)-7-(trifluoromethyl)quinazolin-2(1H)-one], the IC50 was 1000 to 10000 nM.
With `CNc1nc(=O)n(Cc2cnsc2)c2cc(C(F)(F)F)ccc12` [1.029, 1-(Isothiazol-4-ylmethyl)-4-(methylamino)-7-(trifluoromethyl)quinazolin-2(1H)-one] the IC50 was 1000 to 10000 nM.
With `CCN(C)c1nc(=O)n([C@H](C)c2cnc[nH]2)c2cc(C(F)(F)F)ccc12` (single isomer, unassigned) [1.036] the IC50 was 10 to 200 nM.
`CNc1nc(=O)n(Cc2cnco2)c2cc(C(F)(F)F)ccc12` [1.065, 4-(Methylamino)-1-(oxazol-5-ylmethyl)-7-(trifluoromethyl)quinazolin-2(1H)-one] showed an IC50 of 500 to 1000 nM.

Same assay, conditions: MAT2A inhibition, Biological Example B procedure; printed as a numeric bound, not a class symbol
`Cc1ncc(Cn2c(=O)nc(N(C)C)c3ccc(C(F)(F)F)cc32)[nH]1` [1.049, 4-(Dimethylamino)-1-((2-methyl-1H-imidazol-5-yl)methyl)-7-(trifluoromethyl)quinazolin-2(1H)-one] showed an IC50 of over 10000 nM.

From patent publication US20240208965A1, “HETEROARYL ALKYLENE SUBSTITUTED 2-OXOQUINAZOLINE DERIVATIVES AS METHIONINE ADENOSYLTRANSFERASE 2A INHIBITORS” (IDEAYA BIOSCIENCES, INC., priority 2020, published 2024)
